Assay results: ChEMBL document CHEMBL4196047, “Discovery and evolution of aloperine derivatives as novel anti-filovirus agents through targeting entry stage” (Eur J Med Chem, 2018)
Activity calls are given as the source filed them. The calls are words filed in the database; no cut-off is given here.

What was measured:
[1] = system: Marburgvirus; assay: microbe, parasite or virus in culture; format: functional, organism-based; details: Orthomarburgvirus, HEK-293T
[2] = system: Ebolavirus; assay: microbe, parasite or virus in culture; format: functional, cell-based; details: Orthoebolavirus, HEK-293T
[3] = in vitro; details: human, HEK293T cells
[4] = in vitro; details: human, HEK293T cells; remark: listed apart in the source
[5] = in vitro; details: human, HEK293T cells; remark: listed apart in the source
[6] = system: Vesicular stomatitis virus; assay: microbe, parasite or virus in culture; format: functional, organism-based; details: HEK-293T
[7] = biological target: Cathepsin B (Homo sapiens) (UniProt P07858); assay: Inhibition of cathepsin B in HEK293 cells using N-benzyloxycarbonyl-L-arginyl-L-arginine-7-amido-4-methylcoumarin as substrate; format: cell-based
[8] = Cmax in BALB/c mouse at 25 mg/kg, po; format: ADME, organism-based; set-up: dose 25 mg/kg, route oral; details: in vivo
[9] = Toxicity in ig dosed Kunming mouse administered as single dose measured for 7 days; format: organism-based; details: in vivo, po
[10] = system: Marburgvirus; assay: Antiviral activity against HIV1 pseudotyped MARV infected in BALB/c mouse at 100 ug, iv and ip measured at day 4 by bioluminescence assay relative to control; format: functional
[11] = AUC (0 to t) in BALB/c mouse at 25 mg/kg, po; format: ADME, organism-based; details: in vivo
[12] = system: HEK-293T; assay: Inhibition of endosomal acidification in HEK293T cells at 20 to 40 uM after 1 hr by LysoTracker Red dye-based confocal fluorescence microscopic analysis; format: functional, cell-based; details: Homo sapiens
[13] = system: Ebolavirus; assay: Antiviral activity against HIV1 pseudotyped EBOV infected in HEK293T cells assessed as inhibition of late stage viral entry at 25 uM treated during infection measured after 72 hrs by luciferase reporter gene assay relative to control; format: functional; details: Orthoebolavirus, HEK-293T
[14] = biological target: Procathepsin L (Homo sapiens) (UniProt P07711); assay: Inhibition of cathepsin L in HEK293 cells using N-benzyloxycarbonyl-L-phenylalanyl-L-arginine-7-amido-4-methylcoumarin as substrate; format: cell-based
Sequence of Procathepsin L (Homo sapiens) (P07711 114-333 limits assumed): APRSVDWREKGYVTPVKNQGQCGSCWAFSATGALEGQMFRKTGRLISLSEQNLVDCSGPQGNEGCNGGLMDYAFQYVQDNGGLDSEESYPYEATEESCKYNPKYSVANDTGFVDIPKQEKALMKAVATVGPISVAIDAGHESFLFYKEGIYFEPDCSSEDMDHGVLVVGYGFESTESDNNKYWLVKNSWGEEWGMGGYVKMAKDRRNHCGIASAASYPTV

[15] = Tmax in BALB/c mouse at 25 mg/kg, po; format: ADME, organism-based; details: in vivo
[16] = Half life in BALB/c mouse at 25 mg/kg, po; format: ADME, organism-based; details: in vivo
[17] = MRT in BALB/c mouse at 25 mg/kg, po; format: ADME, organism-based; details: in vivo
[18] = AUC (0 to infinity) in BALB/c mouse at 25 mg/kg, po; format: ADME, organism-based; set-up: dose 25 mg/kg, time infinity, route oral; details: in vivo
[19] = system: Ebolavirus; assay: Antiviral activity against HIV1 pseudotyped EBOV infected in HEK293T cells assessed as inhibition of late stage viral entry at 25 uM treated for 1 hr before infection measured after 72 hrs by luciferase reporter gene assay relative to control; format: functional; details: Orthoebolavirus, HEK-293T
[20] = Toxicity in ip dosed Kunming mouse administered as single dose measured for 7 days; format: organism-based; details: in vivo
[21] = system: Ebolavirus; assay: Antiviral activity against HIV1 pseudotyped EBOV infected in HEK293T cells assessed as inhibition of late stage viral entry at 25 uM treated for 1 hr post infection measured after 72 hrs by luciferase reporter gene assay relative to control; format: functional; details: Orthoebolavirus, HEK-293T
[22] = Toxicity in iv dosed Kunming mouse administered as single dose measured for 7 days; format: organism-based; details: in vivo
[23] = system: HEK-293T; assay: Inhibition of endosomal acidification in HEK293T cells at […] after 1 hr by LysoTracker Red dye-based confocal fluorescence microscopic analysis; format: functional, cell-based; details: Homo sapiens

Compound	EC50 [1] [µM]	EC50 [2] [µM]	selectivity ratio [3]	selectivity ratio [4]	CC50 [5] [µM]	EC50 [6] [µM]	also measured
C1=C2CCCN[C@H]2[C@@H]2C[C@H]1[C@H]1CCCCN1C2	10.2	12.4	> 19.6	> 16.1	> 200	103	–
O=C(c1ccc(Cl)c(Cl)c1)N1CCCC2=C[C@H]3C[C@H](CN4CCCC[C@H]34)[C@@H]21	80.8	49	2.5	4.1	200	98.6	–
FC(F)(F)Oc1ccc(CN2CCCC3=C[C@H]4C[C@H](CN5CCCC[C@H]45)[C@@H]32)cc1	11.9	10.4	6.9	7.9	82	22.4	–
Cc1ccccc1CN1CCCC2=C[C@H]3C[C@H](CN4CCCC[C@H]34)[C@@H]21	15	16.6	10.8	9.7	162	39	–
COc1cccc(CN2CCCC3=C[C@H]4C[C@H](CN5CCCC[C@H]45)[C@@H]32)c1	17.8	12.1	> 11.2	> 16.5	> 200	59	–
Clc1ccc(CN2CCCC3=C[C@H]4C[C@H](CN5CCCC[C@H]45)[C@@H]32)cc1Cl	7.1	4.8	> 28.2	> 41.7	> 200	> 200	inhibition [7]: Active; Cmax [8]: 290 nM; LD50 at 168 h [9]: 458 mg/kg; Activity [10]: 45%; AUC(0-t) [11]: 2.74 µM·h; inhibition [12]: inactive; inhibition at 25 µM [13]: 23 to 66%; inhibition [14]: inactive; Tmax [15]: 0.67 h; half-life [16]: 4.14 h; MRT [17]: 4.89 h; AUC(0-inf) [18]: 4.89 µM·h; inhibition at 25 µM [19]: < 38%; LD50 at 168 h [20]: > 100 mg/kg; inhibition at 25 µM [21]: 85%; LD50 at 168 h [22]: 28.3 mg/kg
Clc1ccc(CN2CCCC3=C[C@H]4C[C@H](CN5CCCC[C@H]45)[C@@H]32)cc1	9.8	11.9	> 20.4	> 16.8	> 200	77.8	–
O=C(c1cc(Cl)cc(Cl)c1)N1CCCC2=C[C@H]3C[C@H](CN4CCCC[C@H]34)[C@@H]21	35.3	39.8	> 5.7	> 5	> 200	> 200	–
Clc1ccc(CCN2CCCC3=C[C@H]4C[C@H](CN5CCCC[C@H]45)[C@@H]32)cc1Cl	–	6.8	–	7.6	51.5	44	–
Clc1ccc(CN2CCCC3=C[C@H]4C[C@H](CN5CCCC[C@H]45)[C@@H]32)c(Cl)c1	6.4	6.6	> 31.2	> 30.3	> 200	10.6	–
N#Cc1cccc(S(=O)(=O)N2CCCC3=C[C@H]4C[C@H](CN5CCCC[C@H]45)[C@@H]32)c1	70.7	69.4	> 2.8	> 2.9	> 200	> 200	–
Fc1ccc(CN2CCCC3=C[C@H]4C[C@H](CN5CCCC[C@H]45)[C@@H]32)cc1	21.5	17	> 9.3	> 11.8	> 200	107	–
Clc1cc(Cl)cc(CCN2CCCC3=C[C@H]4C[C@H](CN5CCCC[C@H]45)[C@@H]32)c1	–	5.7	–	9.8	56	42.5	–
O=S(=O)(c1ccc(Cl)c(Cl)c1)N1CCCC2=C[C@H]3C[C@H](CN4CCCC[C@H]34)[C@@H]21	10.5	24.1	> 19	> 8.3	> 200	45.4	–
O=S(=O)(c1cc(Cl)cc(Cl)c1)N1CCCC2=C[C@H]3C[C@H](CN4CCCC[C@H]34)[C@@H]21	27.2	10.6	> 7.4	> 18.9	> 200	31.3	–
Clc1cc(Cl)cc(CN2CCCC3=C[C@H]4C[C@H](CN5CCCC[C@H]45)[C@@H]32)c1	8.5	8.1	9.8	10.3	83.5	34.3	–
C1=C2CCCN(Cc3ccccc3)[C@H]2[C@@H]2C[C@H]1[C@H]1CCCCN1C2	22	15.2	7.6	11	168	28.3	–
O=C(c1ccc(Cl)cc1)N1CCCC2=C[C@H]3C[C@H](CN4CCCC[C@H]34)[C@@H]21	112	34.1	> 1.8	> 5.9	> 200	89.6	–
O=S(=O)(c1ccc(Cl)cc1)N1CCCC2=C[C@H]3C[C@H](CN4CCCC[C@H]34)[C@@H]21	18.8	21.8	> 10.6	> 9.2	> 200	104	–
O=S(=O)(c1cccs1)N1CCCC2=C[C@H]3C[C@H](CN4CCCC[C@H]34)[C@@H]21	62.4	33.2	> 3.2	> 6	> 200	> 200	–
Cl.N	–	–	–	–	–	–	inhibition [23]: Active
Clc1ccc(CCCN2CCCC3=C[C@H]4C[C@H](CN5CCCC[C@H]45)[C@@H]32)cc1Cl	–	5.8	–	5	29.3	23	–
Clc1cc(Cl)cc(CCCN2CCCC3=C[C@H]4C[C@H](CN5CCCC[C@H]45)[C@@H]32)c1	–	6.1	–	4.2	25.9	19.6	–
Clc1ccc(CCCN2CCCC3=C[C@H]4C[C@H](CN5CCCC[C@H]45)[C@@H]32)cc1	–	7.1	–	10.4	74.1	49.9	–
Clc1ccc(CCN2CCCC3=C[C@H]4C[C@H](CN5CCCC[C@H]45)[C@@H]32)cc1	–	6	–	13.9	83.3	52.2	–
